The source of these data is US6388071B2, “Alkynyl phenyl heteroaromatic glucokinase activators” (Hoffmann-La Roche Inc., priority 2000, dated 2002).

On to `CC(O)CC#Cc1ccc(C(CC2CCCC2)C(=O)Nc2nccs2)cc1` (stereo not drawn) [Example 5, 3-Cyclopentyl-2-[4-(4-hydroxy-pent-1-ynyl)-phenyl]-N-thiazol-2-yl-propionamide], for which the melting point was in the range of 162 to 163 °C. The same measure for `COCC#Cc1ccc(C(CC2CCCC2)C(=O)Nc2nccs2)cc1` (stereo not drawn) [Example 3, 3-Cyclopentyl-2-[4-(3-methoxy-prop-1-ynyl)-phenyl]-N-thiazol-2-yl-propionamide]: 170 to 172 °C; for `C#Cc1ccc(C(CC2CCCC2)C(=O)Nc2nccs2)cc1` (stereo not drawn) [Example 1, 3-Cyclopentyl-2-(4-ethynyl-phenyl)-N-thiazol-2-yl-propionamide]: 181 to 183 °C; for `CN(C)CC#Cc1ccc(C(CC2CCCC2)C(=O)Nc2nccs2)cc1` (stereo not drawn) [Example 7]: 164 to 167 °C. With `O=C(Nc1nccs1)C(CC1CCCC1)c1ccc(C#CCO)cc1` (stereo not drawn) [Example 6, 3-Cyclopentyl-2-[4-(3-hydroxy-prop-1-ynyl)-phenyl]-N-thiazol-2-yl-propionamide] the figure was 220 to 222 °C. The compound `O=C(Nc1nccs1)C(CC1CCCC1)c1ccc(C#CC2(O)CCCCC2)cc1` (stereo not drawn) [Example 2, 3-Cyclopentyl-2-[4-(1-hydroxy-cyclohexylethynyl)-phenyl]-N-thiazol-2-yl-propionamide] had a melting point of 172 to 173 °C. In turn, `O=C(Nc1nccs1)C(CC1CCCC1)c1ccc(C#Cc2ccccn2)cc1` (stereo not drawn) [Example 9, 3-Cyclopentyl-2-(4-pyridin-2-ylethynyl-phenyl)-N-thiazol-2-yl-propionamide] had a melting point of 185 to 187 °C.

For the compound `CCC(C)(O)C#Cc1ccc(C(CC2CCCC2)C(=O)Nc2nccs2)cc1` (stereo not drawn) [Example 4, 3-Cyclopentyl-2-[4-(3-hydroxy-3-methyl-pent-1-ynyl)-phenyl]-N-thiazol-2-yl-propionamide], the melting point is 172 to 174 °C. Turning to `O=C(Nc1nccs1)C(CC1CCCC1)c1ccc(C#Cc2cncnc2)cc1` (stereo not drawn) [Example 10, 3-Cyclopentyl-2-(4-pyrimidin-5-ylethynyl-phenyl)-N-thiazol-2-yl-propionamide], the melting point was in the range of 149 to 151 °C.
